Experimental data as given in patent publication US20260317299A1, “PIKFYVE PROTEIN KINASE DEGRADATION AGENT AND USE THEREOF” (Shanghai Institute of Organic Chemistry, Chinese Academy of …, priority 2023, published 2026).

Target: T1, PIKfyve (Homo sapiens, UniProt Q9Y2I7)
T1 construct: endogenous in cells; host or cells: VCaP
Test: Degradation of PIKfyve proteins in VCaP tumor cells (24 h, Western blot)
Assay type: cell-based
Settings: 37° C., compared with DMSO control, WB, read-out: DC50 (concentration that achieves 50% degradation activity)
Summary of the method: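 VCaP cells (5×10^6 cells/ml) treated with a range of compound concentrations at 37° C for 24 h, then lysed in SDS buffer. PIKfyve level measured by Western blot with GAPDH as loading control and ECL detection. DC50 is the concentration giving 50% degradation relative to DMSO control.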

T1 sequence (Q9Y2I7 whole entry): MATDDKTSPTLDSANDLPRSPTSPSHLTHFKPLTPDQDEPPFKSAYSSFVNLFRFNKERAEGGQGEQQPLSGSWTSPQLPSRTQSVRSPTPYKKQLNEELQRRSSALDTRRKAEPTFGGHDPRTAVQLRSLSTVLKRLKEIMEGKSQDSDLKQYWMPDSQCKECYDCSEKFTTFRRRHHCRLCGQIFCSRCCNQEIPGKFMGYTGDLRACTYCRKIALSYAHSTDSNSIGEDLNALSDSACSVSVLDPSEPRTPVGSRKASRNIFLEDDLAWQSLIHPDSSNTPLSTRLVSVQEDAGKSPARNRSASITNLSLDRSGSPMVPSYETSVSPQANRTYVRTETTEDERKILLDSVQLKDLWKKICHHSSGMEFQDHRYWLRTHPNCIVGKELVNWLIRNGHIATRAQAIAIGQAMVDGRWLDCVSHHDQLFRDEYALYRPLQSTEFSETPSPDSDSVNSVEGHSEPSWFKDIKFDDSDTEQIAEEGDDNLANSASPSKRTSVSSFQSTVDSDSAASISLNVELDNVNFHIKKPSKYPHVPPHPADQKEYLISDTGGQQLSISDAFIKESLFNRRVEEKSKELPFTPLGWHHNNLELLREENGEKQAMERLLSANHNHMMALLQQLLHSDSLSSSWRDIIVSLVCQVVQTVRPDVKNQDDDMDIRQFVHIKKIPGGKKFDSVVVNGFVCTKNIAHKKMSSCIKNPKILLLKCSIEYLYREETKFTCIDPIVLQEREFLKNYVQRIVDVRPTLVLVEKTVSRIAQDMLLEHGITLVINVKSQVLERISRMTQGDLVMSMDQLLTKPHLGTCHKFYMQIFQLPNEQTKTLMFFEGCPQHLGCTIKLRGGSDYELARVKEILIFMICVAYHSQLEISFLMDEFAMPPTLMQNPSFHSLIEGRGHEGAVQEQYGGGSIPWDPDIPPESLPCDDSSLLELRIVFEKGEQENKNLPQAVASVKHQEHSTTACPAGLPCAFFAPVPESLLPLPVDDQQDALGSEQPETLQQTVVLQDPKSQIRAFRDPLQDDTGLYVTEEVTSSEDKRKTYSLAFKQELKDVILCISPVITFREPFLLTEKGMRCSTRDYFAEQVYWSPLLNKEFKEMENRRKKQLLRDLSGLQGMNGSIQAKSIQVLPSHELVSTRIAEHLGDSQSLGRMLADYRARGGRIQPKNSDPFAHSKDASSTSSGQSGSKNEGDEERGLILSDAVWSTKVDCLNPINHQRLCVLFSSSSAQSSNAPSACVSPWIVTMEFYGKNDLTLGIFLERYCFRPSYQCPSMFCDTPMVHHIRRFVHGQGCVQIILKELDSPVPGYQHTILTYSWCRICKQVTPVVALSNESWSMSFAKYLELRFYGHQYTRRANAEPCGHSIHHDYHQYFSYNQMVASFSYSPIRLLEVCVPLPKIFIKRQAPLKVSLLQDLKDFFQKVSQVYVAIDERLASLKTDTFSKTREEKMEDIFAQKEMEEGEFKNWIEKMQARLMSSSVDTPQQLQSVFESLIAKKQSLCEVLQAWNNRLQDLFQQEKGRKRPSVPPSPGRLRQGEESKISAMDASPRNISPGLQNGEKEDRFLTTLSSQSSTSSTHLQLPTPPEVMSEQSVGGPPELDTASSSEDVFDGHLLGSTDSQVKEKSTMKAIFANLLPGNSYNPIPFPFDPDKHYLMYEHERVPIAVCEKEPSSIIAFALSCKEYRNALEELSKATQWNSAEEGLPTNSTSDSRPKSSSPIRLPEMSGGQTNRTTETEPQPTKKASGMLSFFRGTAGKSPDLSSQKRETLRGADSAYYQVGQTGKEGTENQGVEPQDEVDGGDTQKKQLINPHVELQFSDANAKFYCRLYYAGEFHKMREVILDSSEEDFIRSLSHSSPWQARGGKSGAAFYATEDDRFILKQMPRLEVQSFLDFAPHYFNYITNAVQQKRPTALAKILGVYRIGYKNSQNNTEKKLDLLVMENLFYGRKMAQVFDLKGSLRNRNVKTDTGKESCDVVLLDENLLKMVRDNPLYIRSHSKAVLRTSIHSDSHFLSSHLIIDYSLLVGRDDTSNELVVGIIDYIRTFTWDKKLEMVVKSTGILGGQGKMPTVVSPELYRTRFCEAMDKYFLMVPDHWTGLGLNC

| SMILES | DC50 |
| --- | --- |
| Cc1cccc(/C=N/Nc2cc(N3CCOCC3)nc(OCCc3ccc(NC(=O)CCCCCNc4cccc5c4C(=O)N(C4CCC(=O)NC4=O)C5=O)cc3)n2)c1 (stereo not drawn) [Example 13, (E)-6-((2-(2,6-dioxopiperidin-3-yl)-1,3-dioxoisoindolin-4-yl)amino)-N-(4-(2-((4-(2-(3-methylbenzylidene)hydrazino)-6-morpholinopyrimidin-2-yl)oxy)ethyl)phenyl)hexanamide] | 100 to 10000 nM |
| Cc1cccc(/C=N/Nc2cc(N3CCOCC3)nc(OCCc3ccc(NC(=O)CCCNC(=O)CC[C@H](NC(=O)[C@@H]4C[C@@H](O)CN4C(=O)[C@@H](NC(=O)C4(F)CC4)C(C)(C)C)c4ccc(-c5scnc5C)cc4)cc3)n2)c1 [Example 51, (2S,4R)-1-((S)-2-(1-fluorocyclopropane-1-carboxamido)-3,3-dimethylbutanoyl)-4-hydroxy-N—((S)-4-((4-((4-(2-((4-(2-((E)-3-methylbenzylidene)hydrazino)-6-morpholinopyrimidin-2-yl)oxy)ethyl)phenyl)amino)-4-oxobutyl)amino)-1-(4-(4-methylthiazol-5-yl)phenyl)4-oxobutyl)pyrrolidine-2-carboxamide] | 1 to 100 nM |
| Cc1cccc(/C=N/Nc2cc(N3CCOCC3)nc(OCCc3ccc(NC(=O)CCC(=O)Nc4ccc5c(c4)C(=O)N(C4CCC(=O)NC4=O)C5)cc3)n2)c1 (stereo not drawn) [Example 28, (E)-N^1-(2-(2,6-dioxopiperidin-3-yl)-3-oxoisoindolin-5-yl)-N^4-(4-(2-((4-(2-(3-methylbenzylidene)hydrazino)-6-morpholinopyrimidin-2-yl)oxy)ethyl)phenyl)succinimide] | 1 to 100 nM |
| Cc1cccc(/C=N/Nc2cc(N3CCOCC3)nc(OCCc3ccc(NC(=O)CCCCC(=O)N[C@H](C(=O)N4C[C@H](O)C[C@H]4C(=O)NCc4ccc(-c5scnc5C)cc4)C(C)(C)C)cc3)n2)c1 [Example 38, N^1—((S)-1-((2S,4R)-4-hydroxy-2-((4-(4-methylthiazol-5-yl)benzyl)carbamoyl)pyrrolidine-1-yl)-3,3-dimethyl-1-oxobutan-2-yl)-N^6-(4-(2-((4-(2-((E)-3-methylbenzylidene) hydrazino)-6-morpholinopyrimidin-2-yl)oxy)ethyl)phenyl)adipamide] | 1 to 100 nM |

Other lines, results leading:

| DC50 | SMILES |
| --- | --- |
| 1 to 100 nM | Cc1cccc(-c2ccn(-c3cc(N4CCOCC4)nc(OCCc4ccc(NC(=O)NC5CN(C(=O)C[C@H](NC(=O)[C@@H]6C[C@@H](O)CN6C(=O)[C@@H](NC(=O)C6(F)CC6)C(C)(C)C)c6ccc(-c7scnc7C)cc6)C5)cc4)n3)n2)c1 [Example 73, (2S,4R)-1-((S)-2-(1-fluorocyclopropane-1-carboxamido)-3,3-dimethylbutanoyl)-4-hydroxy-N—((S)-1-(4-(4-methylthiazol-5-yl)phenyl)-3-(3-(3-(4-(2-((4-morpholino-6-(3-(m-tolyl)-1H-pyrazol-1-yl)pyrimidin-2-yl)oxy)ethyl)phenyl)ureido)azetidin-1-yl)-3-oxopropyl) pyrrolidine-2-carboxamide] |
| 1 to 100 nM | Cc1cccc(-c2ccn(-c3cc(N4CCOCC4)nc(OCCc4ccc(NC(=O)NC5CN(C(=O)CC[C@H](NC(=O)[C@@H]6C[C@@H](O)CN6C(=O)[C@@H](NC(=O)C6(F)CC6)C(C)(C)C)c6ccc(-c7scnc7C)cc6)C5)cc4)n3)n2)c1 [Example 74, (2S,4R)-1-((S)-2-(1-fluorocyclopropane-1-carboxamido)-3,3-dimethylbutanoyl)-4-hydroxy-N—((S)-1-(4-(4-methylthiazol-5-yl)phenyl)-4-(3-(3-(4-(2-((4-morpholino-6-(3-(m-tolyl)-1H-pyrazol-1-yl)pyrimidin-2-yl)oxy)ethyl)phenyl)ureido)azetidin-1-yl)-4-oxobutyl) pyrrolidine-2-carboxamide] |
| 1 to 100 nM | Cc1cccc(-c2ccn(-c3cc(N4CCOCC4)nc(OC4CCN(c5ccc(N6CCN(C(=O)C[C@H](NC(=O)[C@@H]7C[C@@H](O)CN7C(=O)[C@@H](NC(=O)C7(F)CC7)C(C)(C)C)c7ccc(-c8scnc8C)cc7)CC6)cc5)CC4)n3)n2)c1 [Example 84, (2S,4R)-1-((S)-2-(1-fluorocyclopropane-1-carboxamido)-3,3-dimethylbutanoyl)-4-hydroxy-N—((S)-1-(4-(4-methylthiazol-5-yl)phenyl)-3-(4-(4-(4-((4-morpholino-6-(3-(m-tolyl)-1H-pyrazol-1-yl)pyrimidin-2-yl)oxy)piperidin-1-yl)phenyl)piperazin-1-yl)-3-oxopropyl) pyrrolidine-2-carboxamide] |
| 100 to 10000 nM | Cc1cccc(-c2ccn(-c3cc(N4CCOCC4)nc(OC4CCN(c5ccc(NC(=O)NC6CN(c7cc8c(cc7F)C(=O)N(C7CCC(=O)NC7=O)C8=O)C6)cc5)CC4)n3)n2)c1 (stereo not drawn) [Example 93, 1-(1-(2-(2,6-Dioxopiperidin-3-yl)-6-fluoro-1,3-dioxoisoindolin-5-yl)azetidin-3-yl)-3-(4-(4-((4-morpholino-6-(3-(m-tolyl)-1H-pyrazol-1-yl)pyrimidin-2-yl)oxy)piperidin-1-yl)phenyl)urea] |
| 1 to 100 nM | Cc1cccc(-c2ccn(-c3cc(N4CCOCC4)nc(OC4CCN(c5ccc(NC(=O)NC6CN(C(=O)C[C@H](NC(=O)[C@@H]7C[C@@H](O)CN7C(=O)[C@@H](NC(=O)C7(F)CC7)C(C)(C)C)c7ccc(-c8scnc8C)cc7)C6)cc5)CC4)n3)n2)c1 [Example 80, (2S,4R)-1-((S)-2-(1-fluorocyclopropane-1-carboxamido)-3,3-dimethylbutanoyl)-4-hydroxy-N—((S)-1-(4-(4-methylthiazol-5-yl)phenyl)-3-(3-(3-(4-(4-((4-morpholino-6-(3-(m-tolyl)-1H-pyrazol-1-yl)pyrimidin-2-yl)oxy)piperidin-1-yl)phenyl)ureido)azetidin-1-yl)-3-oxopropyl)pyrrolidine-2-carboxamide] |
